Experiment [1] concerns the target T1, muscarinic acetylcholine receptor M2 (Cavia porcellus, UniProt H0VRN8).
T1 sequence (H0VRN8 1-466): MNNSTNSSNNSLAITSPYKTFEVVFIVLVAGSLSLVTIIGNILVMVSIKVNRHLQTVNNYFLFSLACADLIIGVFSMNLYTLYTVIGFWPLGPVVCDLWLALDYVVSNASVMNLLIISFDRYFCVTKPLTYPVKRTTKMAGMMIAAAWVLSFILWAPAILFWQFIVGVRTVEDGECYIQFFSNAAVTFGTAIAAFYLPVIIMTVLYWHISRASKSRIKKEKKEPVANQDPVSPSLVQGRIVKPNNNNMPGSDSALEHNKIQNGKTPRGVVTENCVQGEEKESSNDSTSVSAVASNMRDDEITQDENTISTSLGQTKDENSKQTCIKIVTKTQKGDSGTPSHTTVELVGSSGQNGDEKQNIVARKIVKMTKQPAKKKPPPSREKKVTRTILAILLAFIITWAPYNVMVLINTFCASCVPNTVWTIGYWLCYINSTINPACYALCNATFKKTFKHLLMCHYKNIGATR
The experiment in a line: Tissue-based assay for M2 antagonism.

For the next experiment, the target named is T2, Serine Kinase Zap-70 (Homo sapiens, UniProt P43403).
T2 sequence (P43403 1-619): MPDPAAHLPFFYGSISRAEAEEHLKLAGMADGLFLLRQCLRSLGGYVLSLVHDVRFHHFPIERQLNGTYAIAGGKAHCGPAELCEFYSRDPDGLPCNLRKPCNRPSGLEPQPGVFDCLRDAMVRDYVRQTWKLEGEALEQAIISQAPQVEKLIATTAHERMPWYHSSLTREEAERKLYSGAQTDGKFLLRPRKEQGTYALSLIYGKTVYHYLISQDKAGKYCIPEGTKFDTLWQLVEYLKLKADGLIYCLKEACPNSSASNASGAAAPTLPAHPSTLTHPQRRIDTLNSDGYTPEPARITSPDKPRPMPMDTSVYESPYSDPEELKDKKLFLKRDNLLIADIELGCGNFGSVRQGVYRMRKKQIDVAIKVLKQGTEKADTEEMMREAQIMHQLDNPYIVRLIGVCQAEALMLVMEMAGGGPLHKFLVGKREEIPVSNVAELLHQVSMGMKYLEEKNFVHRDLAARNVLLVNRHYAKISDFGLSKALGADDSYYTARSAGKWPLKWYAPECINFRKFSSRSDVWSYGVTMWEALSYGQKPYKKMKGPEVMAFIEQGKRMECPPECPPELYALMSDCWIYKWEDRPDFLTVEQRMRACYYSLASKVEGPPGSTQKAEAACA
In words: AS-MS dissociation kinetics after quench with excess Staurosporine. It counts as binding. Conditions: read-out: Dissociation rate ks2 (converted). As to the method:
A mixture of 9 μM Zap-70 and 1 μM NGD-6380 is prepared and incubated at room temperature for 30 minutes, a time sufficient for the mixture to reach equilibrium of bound and unbound components. […] The resulting dissociation of NGD-6380 is measured over time at intervals of 20, 30, 40, 60, 70, 80, and 100 minutes. The dissociation of NGD-6380 is measured in the following manner. […] Any amount of NGD-6380 which is not bound to the Zap-70 is separated from the Zap-70-NGD-6380 complex by the size exclusion step. […] Thus, the dissociation of […] is seen by the decreasing amount of the signal response of the NGD-6380 over time. The decrease in the signal response of the NGD-6380 is plotted as a function of time and the experimental data is fit to the exponential decay function of formula (XVIII) using the program Mathematical (Wolfram Research Inc., version 4.1). [ES]=[ES]0e^-ks2·t formula (XVIII) A mixture of 9 μM Zap-70 and 1 μM of a mixture of the ligands depicted in Table 3 is prepared and incubated at room temperature for 30 minutes, a time sufficient for the mixture to reach equilibrium of bound and unbound components. […] The decrease in the signal response of the ligands is plotted as a function of time and the experimental data is fit to the exponential decay function of formula (XVIII) using the program Mathematica®. [ESi]=[[…] formula (XVIII)

Consider nine compounds from patent US20050064510A1, “Ligand analysis” (priority 2003, published 2005).

For the compound `O=C(N[C@H]1CCCC[C@@H]1OCc1ccccc1)c1coc(-c2ccc(C(=O)N3CCC(N4CCCC4)CC3)cc2)n1` [NGD-3350], in experiment [1], the “activity in tissue” value is reported as “significant activity”. As to `CN(Cc1ccccc1)c1cc(C(=O)N2CCC[C@H]2CN2CCCC2)c2cc(-c3ccc4c(c3)OCO4)ccc2n1` [NGD-6073], the koff on Serine Kinase Zap-70 is 0.000117 s⁻¹. On to `O=C(c1cc(NCc2cccc(F)c2)nc2ccc(-c3ccc4c(c3)OCO4)cc12)N1CCC[C@H]1CN1CCCC1` [NGD-6367], for which the koff at Serine Kinase Zap-70 was 0.000493 s⁻¹. Turning to `O=C(c1cc(NCc2ccc(Cl)cc2)nc2ccc(-c3ccc4c(c3)OCO4)cc12)N1CCC[C@H]1CN1CCCC1` [NGD-6371], on Serine Kinase Zap-70, the koff was 0.000275 s⁻¹. Still for that read-out and setting: with `O=C(c1cc(NCc2ccc(C(F)(F)F)cc2)nc2ccc(-c3ccc4c(c3)OCO4)cc12)N1CCC[C@H]1CN1CCCC1` [NGD-6380] the figure was 0.000138 s⁻¹. Turning to `CC(CNc1cc(C(=O)N2CCC[C@H]2CN2CCCC2)c2cc(-c3ccc4c(c3)OCO4)ccc2n1)c1ccccc1` (stereo partly drawn) [NGD-6390], the koff on Serine Kinase Zap-70 was 0.00021 s⁻¹. Turning to `CCN(Cc1ccccc1)c1cc(C(=O)N2CCC[C@H]2CN2CCCC2)c2cc(-c3ccc4c(c3)OCO4)ccc2n1` [NGD-6423], at Serine Kinase Zap-70, the koff was 6.5e-05 s⁻¹. Still for that read-out and setting: in the case of `CN(Cc1ccc(Cl)c(Cl)c1)c1cc(C(=O)N2CCC[C@H]2CN2CCCC2)c2cc(-c3ccc4c(c3)OCO4)ccc2n1` [NGD-6432] it was 0.000117 s⁻¹; in that of `O=C(c1cc(NCc2ccc(C(F)(F)F)cc2)nc2ccc(-c3ccc4c(c3)OCCO4)cc12)N1CCC[C@H]1CN1CCCC1` [NGD-6862], 0.000107 s⁻¹.
